Assay results reported in article PMC7407272, “Induction of Lysosome Membrane Permeabilization as a Therapeutic Strategy to Target Pancreatic Cancer Stem Cells” (Cancers, 2020).

Assays:
[1] = tested on: re-plated PDAC2-derived spheres; test: Cytosolic cysteine cathepsin activity; format: cell-based, human; settings: 1.25 or 2.5 µM, 6 h
Method: Spheres were re-plated, and then treated the following day with the indicated concentration of compounds for 6 h in CSC media. Cells were subsequently placed on ice and extracted with either 25 µg/mL or 250 µg/mL of digitonin in 250 mM sucrose, 20 mM HEPES, 10 mM KCl, 1.5 mM MgCl2, 1 mM EDTA, 1 mM EGTA, 1 mM pefablock, pH 7.5. The extracts were taken and spun down briefly to eliminate floating cells. Cathepsin activity was measured in a 96 well format by measuring cleavage of zFR-AMC (Z-Phe-Arg-AMC. Z: N-carbobenzyloxy; 7-Amino-4-methylcoumarin), as previously described.

PDGFRA = target: T1, PDGFRA (Homo sapiens, UniProt P16234); test: KINOMEscan; format: binding; settings: read-out: % Ctrl
T1 construct: purchased DiscoveRx KINOMEscan

FGFR3(G697C) = target: T2, FGFR3(G697C) (Homo sapiens, UniProt P22607, G697C); test: KINOMEscan; format: binding; settings: read-out: % Ctrl
T2 construct: purchased DiscoveRx KINOMEscan

PFTK1 = target: T3, PFTK1 (Homo sapiens, UniProt O94921); test: KINOMEscan; format: binding; settings: read-out: % Ctrl
T3 construct: purchased DiscoveRx KINOMEscan
T3 sequence (O94921 whole entry): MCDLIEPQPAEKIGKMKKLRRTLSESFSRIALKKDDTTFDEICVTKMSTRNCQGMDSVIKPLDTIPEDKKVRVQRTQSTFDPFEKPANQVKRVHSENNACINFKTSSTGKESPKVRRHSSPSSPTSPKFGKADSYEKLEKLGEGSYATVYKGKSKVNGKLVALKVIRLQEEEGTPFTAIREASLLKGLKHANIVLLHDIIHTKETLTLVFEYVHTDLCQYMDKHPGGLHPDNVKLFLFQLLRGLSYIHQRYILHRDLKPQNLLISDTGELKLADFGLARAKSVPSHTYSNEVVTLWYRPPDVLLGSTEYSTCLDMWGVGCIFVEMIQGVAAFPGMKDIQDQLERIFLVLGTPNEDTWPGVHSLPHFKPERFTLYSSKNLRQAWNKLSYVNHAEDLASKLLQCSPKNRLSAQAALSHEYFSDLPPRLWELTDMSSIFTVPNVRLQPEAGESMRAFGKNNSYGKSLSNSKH

FLT3(K663Q) = target: T4, FLT3(K663Q) (Homo sapiens, UniProt P36888, K663Q); test: KINOMEscan; format: binding; settings: read-out: % Ctrl
T4 construct: purchased DiscoveRx KINOMEscan

PIK3CA(E545A) = target: T5, PIK3CA(E545A) (Homo sapiens, UniProt P42336, E545A); test: KINOMEscan; format: binding; settings: read-out: % Ctrl
T5 construct: purchased DiscoveRx KINOMEscan

FLT3(R834Q) = target: T6, FLT3(R834Q) (Homo sapiens, UniProt P36888, R834Q); test: KINOMEscan; format: binding; settings: read-out: % Ctrl
T6 construct: purchased DiscoveRx KINOMEscan

GAK = target: T7, GAK (Homo sapiens, UniProt O14976); test: KINOMEscan; format: binding; settings: read-out: % Ctrl
T7 construct: purchased DiscoveRx KINOMEscan

PIM2 = target: T8, PIM2 (Homo sapiens, UniProt Q9P1W9); test: KINOMEscan; format: binding; settings: read-out: % Ctrl
T8 construct: purchased DiscoveRx KINOMEscan

HIPK3 = target: T9, HIPK3 (Homo sapiens, UniProt Q9H422); test: KINOMEscan; format: binding; settings: read-out: % Ctrl
T9 construct: purchased DiscoveRx KINOMEscan

PKN2 = target: T10, PKN2 (Homo sapiens, UniProt Q16513); test: KINOMEscan; format: binding; settings: read-out: % Ctrl
T10 construct: purchased DiscoveRx KINOMEscan

BLK = target: T11, BLK (Homo sapiens, UniProt P51451); test: KINOMEscan; format: binding; settings: read-out: % Ctrl
T11 construct: purchased DiscoveRx KINOMEscan
T11 sequence (P51451 whole entry): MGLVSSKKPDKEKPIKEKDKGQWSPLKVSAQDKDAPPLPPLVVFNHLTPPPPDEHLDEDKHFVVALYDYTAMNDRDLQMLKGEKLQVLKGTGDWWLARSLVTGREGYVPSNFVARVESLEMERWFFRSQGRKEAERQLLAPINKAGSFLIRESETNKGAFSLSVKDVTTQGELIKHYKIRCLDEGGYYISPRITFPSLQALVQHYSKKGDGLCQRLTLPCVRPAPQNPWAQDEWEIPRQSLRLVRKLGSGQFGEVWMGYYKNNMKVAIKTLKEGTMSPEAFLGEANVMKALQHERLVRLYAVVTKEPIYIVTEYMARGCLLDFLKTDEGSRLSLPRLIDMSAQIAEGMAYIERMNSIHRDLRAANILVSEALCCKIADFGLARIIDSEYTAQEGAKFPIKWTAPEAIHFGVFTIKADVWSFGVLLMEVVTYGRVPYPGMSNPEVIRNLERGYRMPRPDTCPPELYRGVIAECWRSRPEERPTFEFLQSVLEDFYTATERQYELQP

IKK-epsilon = target: T12, IKK-epsilon (Homo sapiens, UniProt Q14164); test: KINOMEscan; format: binding; settings: read-out: % Ctrl
T12 construct: purchased DiscoveRx KINOMEscan
T12 sequence (Q14164 whole entry): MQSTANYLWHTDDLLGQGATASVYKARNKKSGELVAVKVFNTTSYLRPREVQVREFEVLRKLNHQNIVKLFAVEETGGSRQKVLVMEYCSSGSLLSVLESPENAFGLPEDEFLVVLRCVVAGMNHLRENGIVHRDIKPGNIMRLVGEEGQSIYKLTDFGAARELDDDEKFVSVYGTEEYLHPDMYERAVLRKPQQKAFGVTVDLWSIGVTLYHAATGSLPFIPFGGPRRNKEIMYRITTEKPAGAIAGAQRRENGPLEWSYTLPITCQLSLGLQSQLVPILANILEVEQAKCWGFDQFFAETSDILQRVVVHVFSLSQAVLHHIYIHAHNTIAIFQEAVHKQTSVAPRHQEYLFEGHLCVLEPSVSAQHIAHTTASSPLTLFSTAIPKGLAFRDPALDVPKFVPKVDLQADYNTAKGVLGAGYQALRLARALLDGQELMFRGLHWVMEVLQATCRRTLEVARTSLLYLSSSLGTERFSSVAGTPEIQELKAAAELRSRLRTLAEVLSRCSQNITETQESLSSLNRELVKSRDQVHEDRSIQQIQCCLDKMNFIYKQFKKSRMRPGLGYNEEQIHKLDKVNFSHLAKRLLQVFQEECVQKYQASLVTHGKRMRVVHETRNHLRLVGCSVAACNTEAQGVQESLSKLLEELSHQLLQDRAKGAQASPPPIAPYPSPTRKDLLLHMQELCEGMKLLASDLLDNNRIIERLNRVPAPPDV

BMPR2 = target: T13, BMPR2 (Homo sapiens, UniProt Q13873); test: KINOMEscan; format: binding; settings: read-out: % Ctrl
T13 construct: purchased DiscoveRx KINOMEscan

PRKCD = target: T14, PRKCD (Homo sapiens, UniProt Q05655); test: KINOMEscan; format: binding; settings: read-out: % Ctrl
T14 construct: purchased DiscoveRx KINOMEscan

QSK = target: T15, QSK (Homo sapiens, UniProt Q9Y2K2); test: KINOMEscan; format: binding; settings: read-out: % Ctrl
T15 construct: purchased DiscoveRx KINOMEscan

CAMK2G = target: T16, CAMK2G (Homo sapiens, UniProt Q13555); test: KINOMEscan; format: binding; settings: read-out: % Ctrl
T16 construct: purchased DiscoveRx KINOMEscan

CDK7 = target: T17, CDK7 (Homo sapiens, UniProt P50613); test: KINOMEscan; format: binding; settings: read-out: % Ctrl
T17 construct: purchased DiscoveRx KINOMEscan

CDKL2 = target: T18, CDKL2 (Homo sapiens, UniProt Q92772); test: KINOMEscan; format: binding; settings: read-out: % Ctrl
T18 construct: purchased DiscoveRx KINOMEscan

SgK110 = target: T19, SgK110 (Homo sapiens, UniProt P0C264); test: KINOMEscan; format: binding; settings: read-out: % Ctrl
T19 construct: purchased DiscoveRx KINOMEscan

MAST1 = target: T20, MAST1 (Homo sapiens, UniProt Q9Y2H9); test: KINOMEscan; format: binding; settings: read-out: % Ctrl
T20 construct: purchased DiscoveRx KINOMEscan

MEK5 = target: T21, MEK5 (Homo sapiens, UniProt Q13163); test: KINOMEscan; format: binding; settings: read-out: % Ctrl
T21 construct: purchased DiscoveRx KINOMEscan
T21 sequence (Q13163 whole entry): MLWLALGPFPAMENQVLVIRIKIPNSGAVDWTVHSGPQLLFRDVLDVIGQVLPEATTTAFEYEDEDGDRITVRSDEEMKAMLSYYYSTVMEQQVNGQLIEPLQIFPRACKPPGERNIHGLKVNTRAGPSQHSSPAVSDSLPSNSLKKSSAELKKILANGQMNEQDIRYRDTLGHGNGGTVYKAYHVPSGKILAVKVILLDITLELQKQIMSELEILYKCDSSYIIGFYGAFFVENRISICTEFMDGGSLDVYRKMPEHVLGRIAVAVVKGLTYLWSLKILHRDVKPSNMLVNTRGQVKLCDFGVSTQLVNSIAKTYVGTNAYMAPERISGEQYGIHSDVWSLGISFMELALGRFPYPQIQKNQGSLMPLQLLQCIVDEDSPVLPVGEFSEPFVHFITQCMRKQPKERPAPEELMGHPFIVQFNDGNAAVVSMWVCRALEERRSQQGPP

CTK = target: T22, CTK (Homo sapiens, UniProt P42679); test: KINOMEscan; format: binding; settings: read-out: % Ctrl
T22 construct: purchased DiscoveRx KINOMEscan

STK16 = target: T23, STK16 (Homo sapiens, UniProt O75716); test: KINOMEscan; format: binding; settings: read-out: % Ctrl
T23 construct: purchased DiscoveRx KINOMEscan
T23 sequence (O75716 whole entry): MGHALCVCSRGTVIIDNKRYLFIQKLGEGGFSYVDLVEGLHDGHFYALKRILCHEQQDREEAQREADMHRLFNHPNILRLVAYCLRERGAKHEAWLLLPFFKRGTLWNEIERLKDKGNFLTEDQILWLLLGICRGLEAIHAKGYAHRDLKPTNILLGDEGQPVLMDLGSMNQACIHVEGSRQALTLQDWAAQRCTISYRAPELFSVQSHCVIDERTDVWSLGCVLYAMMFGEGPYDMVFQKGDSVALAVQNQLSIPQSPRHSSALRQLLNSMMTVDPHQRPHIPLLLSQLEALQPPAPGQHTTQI

DCAMKL2 = target: T24, DCAMKL2 (Homo sapiens, UniProt Q8N568); test: KINOMEscan; format: binding; settings: read-out: % Ctrl
T24 construct: purchased DiscoveRx KINOMEscan

MKNK2 = target: T25, MKNK2 (Homo sapiens, UniProt Q9HBH9); test: KINOMEscan; format: binding; settings: read-out: % Ctrl
T25 construct: purchased DiscoveRx KINOMEscan

TESK1 = target: T26, TESK1 (Homo sapiens, UniProt Q15569); test: KINOMEscan; format: binding; settings: read-out: % Ctrl
T26 construct: purchased DiscoveRx KINOMEscan
T26 sequence (Q15569 whole entry): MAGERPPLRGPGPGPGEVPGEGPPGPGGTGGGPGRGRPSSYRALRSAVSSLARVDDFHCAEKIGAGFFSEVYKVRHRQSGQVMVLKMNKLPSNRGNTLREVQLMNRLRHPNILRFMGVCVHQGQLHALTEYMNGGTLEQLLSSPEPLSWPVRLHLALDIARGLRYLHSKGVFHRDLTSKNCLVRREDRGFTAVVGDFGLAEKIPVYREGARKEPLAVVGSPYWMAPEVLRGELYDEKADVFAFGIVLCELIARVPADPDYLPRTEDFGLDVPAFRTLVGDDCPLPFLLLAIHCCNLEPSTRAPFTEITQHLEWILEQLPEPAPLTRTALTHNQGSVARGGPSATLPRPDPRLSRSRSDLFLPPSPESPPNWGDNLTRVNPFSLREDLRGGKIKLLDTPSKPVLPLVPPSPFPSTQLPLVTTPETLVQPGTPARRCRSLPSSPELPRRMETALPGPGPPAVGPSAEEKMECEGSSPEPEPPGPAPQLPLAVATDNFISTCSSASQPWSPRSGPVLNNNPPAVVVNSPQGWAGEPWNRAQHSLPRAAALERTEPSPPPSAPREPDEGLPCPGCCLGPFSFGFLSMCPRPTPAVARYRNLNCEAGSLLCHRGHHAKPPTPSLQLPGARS

TGFBR1 = target: T27, TGFBR1 (Homo sapiens, UniProt P36897); test: KINOMEscan; format: binding; settings: read-out: % Ctrl
T27 construct: purchased DiscoveRx KINOMEscan

TNIK = target: T28, TNIK (Homo sapiens, UniProt Q9UKE5); test: KINOMEscan; format: binding; settings: read-out: % Ctrl
T28 construct: purchased DiscoveRx KINOMEscan

MUSK = target: T29, MUSK (Homo sapiens, UniProt O15146); test: KINOMEscan; format: binding; settings: read-out: % Ctrl
T29 construct: purchased DiscoveRx KINOMEscan

EGFR(L858R) = target: T30, EGFR(L858R) (Homo sapiens, UniProt P00533, L858R); test: KINOMEscan; format: binding; settings: read-out: % Ctrl
T30 construct: purchased DiscoveRx KINOMEscan

TRKC = target: T31, TRKC (Homo sapiens, UniProt Q16288); test: KINOMEscan; format: binding; settings: read-out: % Ctrl
T31 construct: purchased DiscoveRx KINOMEscan

NEK3 = target: T32, NEK3 (Homo sapiens, UniProt P51956); test: KINOMEscan; format: binding; settings: read-out: % Ctrl
T32 construct: purchased DiscoveRx KINOMEscan
T32 sequence (P51956 whole entry): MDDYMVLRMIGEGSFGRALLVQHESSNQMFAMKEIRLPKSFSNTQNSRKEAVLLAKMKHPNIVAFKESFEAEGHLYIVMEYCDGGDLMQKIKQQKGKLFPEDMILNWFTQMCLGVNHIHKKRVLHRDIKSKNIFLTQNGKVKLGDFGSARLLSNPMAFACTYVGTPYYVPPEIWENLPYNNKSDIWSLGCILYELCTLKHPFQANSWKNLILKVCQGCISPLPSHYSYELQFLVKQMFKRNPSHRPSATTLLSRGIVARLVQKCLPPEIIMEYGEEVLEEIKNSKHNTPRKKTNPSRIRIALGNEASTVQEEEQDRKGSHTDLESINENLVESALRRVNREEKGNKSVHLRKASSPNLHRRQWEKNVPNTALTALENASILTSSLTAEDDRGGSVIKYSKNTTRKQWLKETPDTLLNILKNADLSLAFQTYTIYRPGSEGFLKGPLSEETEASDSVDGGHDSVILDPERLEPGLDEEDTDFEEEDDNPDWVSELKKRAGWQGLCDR

NEK5 = target: T33, NEK5 (Homo sapiens, UniProt Q6P3R8); test: KINOMEscan; format: binding; settings: read-out: % Ctrl
T33 construct: purchased DiscoveRx KINOMEscan

ULK3 = target: T34, ULK3 (Homo sapiens, UniProt Q6PHR2); test: KINOMEscan; format: binding; settings: read-out: % Ctrl
T34 construct: purchased DiscoveRx KINOMEscan
T34 sequence (Q6PHR2 whole entry): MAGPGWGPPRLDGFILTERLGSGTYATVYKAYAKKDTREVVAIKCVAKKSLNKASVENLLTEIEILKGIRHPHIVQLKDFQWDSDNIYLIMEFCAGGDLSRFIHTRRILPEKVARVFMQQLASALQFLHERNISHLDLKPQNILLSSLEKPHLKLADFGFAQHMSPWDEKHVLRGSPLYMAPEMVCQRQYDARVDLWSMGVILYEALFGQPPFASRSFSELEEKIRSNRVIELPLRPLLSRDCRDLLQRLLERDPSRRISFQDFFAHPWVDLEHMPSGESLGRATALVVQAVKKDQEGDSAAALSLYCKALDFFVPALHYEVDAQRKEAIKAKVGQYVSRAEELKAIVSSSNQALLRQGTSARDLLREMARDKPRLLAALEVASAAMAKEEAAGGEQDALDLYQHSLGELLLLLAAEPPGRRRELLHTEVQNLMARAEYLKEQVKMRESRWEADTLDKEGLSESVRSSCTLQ

EPHB3 = target: T35, EPHB3 (Homo sapiens, UniProt P54753); test: KINOMEscan; format: binding; settings: read-out: % Ctrl
T35 construct: purchased DiscoveRx KINOMEscan

EPHB4 = target: T36, EPHB4 (Homo sapiens, UniProt P54760); test: KINOMEscan; format: binding; settings: read-out: % Ctrl
T36 construct: purchased DiscoveRx KINOMEscan
T36 sequence (P54760 16-987): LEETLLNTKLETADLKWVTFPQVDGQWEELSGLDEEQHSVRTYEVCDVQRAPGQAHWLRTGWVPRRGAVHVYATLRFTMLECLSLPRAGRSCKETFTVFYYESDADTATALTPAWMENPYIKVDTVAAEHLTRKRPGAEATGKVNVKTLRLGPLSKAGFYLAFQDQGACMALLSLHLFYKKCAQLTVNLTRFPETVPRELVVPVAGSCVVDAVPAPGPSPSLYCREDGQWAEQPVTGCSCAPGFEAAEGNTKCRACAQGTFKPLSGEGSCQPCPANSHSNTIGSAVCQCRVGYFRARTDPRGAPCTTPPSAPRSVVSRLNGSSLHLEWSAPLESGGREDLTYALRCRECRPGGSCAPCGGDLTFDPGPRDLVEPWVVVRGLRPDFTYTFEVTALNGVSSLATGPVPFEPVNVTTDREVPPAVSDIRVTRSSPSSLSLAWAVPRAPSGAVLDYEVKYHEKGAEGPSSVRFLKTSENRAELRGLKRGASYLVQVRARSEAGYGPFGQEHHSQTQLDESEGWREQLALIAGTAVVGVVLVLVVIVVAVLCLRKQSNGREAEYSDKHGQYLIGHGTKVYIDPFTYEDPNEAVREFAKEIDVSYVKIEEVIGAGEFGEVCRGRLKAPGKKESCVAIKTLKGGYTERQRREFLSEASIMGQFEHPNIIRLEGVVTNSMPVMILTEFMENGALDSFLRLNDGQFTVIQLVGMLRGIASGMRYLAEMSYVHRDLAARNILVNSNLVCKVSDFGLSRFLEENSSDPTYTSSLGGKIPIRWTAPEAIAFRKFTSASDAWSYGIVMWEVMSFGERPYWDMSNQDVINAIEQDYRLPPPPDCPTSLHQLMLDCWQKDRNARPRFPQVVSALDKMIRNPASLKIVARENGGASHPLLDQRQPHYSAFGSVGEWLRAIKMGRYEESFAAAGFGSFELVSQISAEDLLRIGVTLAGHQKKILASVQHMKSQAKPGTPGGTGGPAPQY

NLK = target: T37, NLK (Homo sapiens, UniProt Q9UBE8); test: KINOMEscan; format: binding; settings: read-out: % Ctrl
T37 construct: purchased DiscoveRx KINOMEscan

ERBB2 = target: T38, ERBB2 (Homo sapiens, UniProt P04626); test: KINOMEscan; format: binding; settings: read-out: % Ctrl
T38 construct: purchased DiscoveRx KINOMEscan

p38-gamma = target: T39, p38-gamma (Homo sapiens, UniProt P53778); test: KINOMEscan; format: binding; settings: read-out: % Ctrl
T39 construct: purchased DiscoveRx KINOMEscan

PAK3 = target: T40, PAK3 (Homo sapiens, UniProt O75914); test: KINOMEscan; format: binding; settings: read-out: % Ctrl
T40 construct: purchased DiscoveRx KINOMEscan

**Q.** What does the source list for `CN1CCC(CNc2ccc3ncc(C(=O)Nc4cccc(OC(F)(F)F)c4)n3n2)CC1` [Cpd 2]?
**A.** cytosolic cysteine cathepsin activity [1]: increased cytosolic cysteine cathepsin activity; remaining binding at 1 µM (PDGFRA): 81%; remaining binding at 1 µM (FGFR3(G697C)): 99%; remaining binding at 1 µM (PFTK1): 97%; remaining binding at 1 µM (FLT3(K663Q)): 92%; remaining binding at 1 µM (PIK3CA(E545A)): 100%; remaining binding at 1 µM (FLT3(R834Q)): 100%; remaining binding at 1 µM (GAK): 89%; remaining binding at 1 µM (PIM2): 72%; remaining binding at 1 µM (HIPK3): 100%; remaining binding at 1 µM (PKN2): 79%; remaining binding at 1 µM (BLK): 100%; remaining binding at 1 µM (IKK-epsilon): 100%; remaining binding at 1 µM (BMPR2): 87%; remaining binding at 1 µM (PRKCD): 80%; remaining binding at 1 µM (QSK): 100%; remaining binding at 1 µM (CAMK2G): 100%; remaining binding at 1 µM (CDK7): 70%; remaining binding at 1 µM (CDKL2): 98%; remaining binding at 1 µM (SgK110): 72%; remaining binding at 1 µM (MAST1): 59%; remaining binding at 1 µM (MEK5): 73%; remaining binding at 1 µM (CTK): 70%; remaining binding at 1 µM (STK16): 96%; remaining binding at 1 µM (DCAMKL2): 97%; remaining binding at 1 µM (MKNK2): 96%; remaining binding at 1 µM (TESK1): 90%; remaining binding at 1 µM (TGFBR1): 100%; remaining binding at 1 µM (TNIK): 81%; remaining binding at 1 µM (MUSK): 99%; remaining binding at 1 µM (EGFR(L858R)): 94%; remaining binding at 1 µM (TRKC): 70%; remaining binding at 1 µM (NEK3): 100%; remaining binding at 1 µM (NEK5): 98%; remaining binding at 1 µM (ULK3): 78%; remaining binding at 1 µM (EPHB3): 86%; remaining binding at 1 µM (EPHB4): 93%; remaining binding at 1 µM (NLK): 97%; remaining binding at 1 µM (ERBB2): 88%; remaining binding at 1 µM (p38-gamma): 91%; remaining binding at 1 µM (PAK3): 98%
